Measurements as given in the supplement of paper PMC10307832.

Tests used:
Assay in all cases: relative viability (nuclei count vs DMSO), 5 days (fraction); higher = more cells survive
[1] = tested on: LU99A
In short: (§1)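 Five library-drug doses in √10 steps were combined with a fixed anchor-drug dose, or a single drug was given alone, by pin tool to lung cancer cell lines in 1536-well plates the day after seeding. Nuclei were stained and counted after 5 days. Relative viability is the nuclei count in treated wells over that in vehicle wells, taken as the median of duplicate plates.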

[2] = tested on: NCI-H1355
In short: as §1

[3] = tested on: UMC-11
In short: as §1

[4] = tested on: LC-2-ad
In short: as §1

[5] = tested on: EPLC-272H
In short: as §1

[6] = tested on: NCI-H1651
In short: as §1

[7] = tested on: COR-L23
In short: as §1

[8] = tested on: NCI-H2347
In short: as §1

[9] = tested on: NCI-H2126
In short: as §1

[10] = tested on: NCI-H838
In short: as §1

[11] = tested on: NCI-H2085
In short: as §1

[12] = tested on: NCI-H650
In short: as §1

[13] = tested on: HARA
In short: as §1

[14] = tested on: HCC-78
In short: as §1

[15] = tested on: NCI-H2023
In short: as §1

[16] = tested on: PC-14
In short: as §1

[17] = tested on: HCC-15
In short: as §1

[18] = tested on: SW 1573
In short: as §1

[19] = tested on: NCI-H358
In short: as §1

[20] = tested on: ABC-1
In short: as §1

[21] = tested on: NCI-H1915
In short: as §1

[22] = tested on: NCI-H1993
In short: as §1

`NC(=O)Nc1cc(-c2cccc(F)c2)sc1C(=O)N[C@H]1CCCNC1` [AZD7762] + CS(=O)(=O)N1CCN(Cc2cc3nc(-c4cccc5[nH]ncc45)nc(N4CCOCC4)c3s2)CC1 [Pictilisib] (partner 1 µM) showed a relative viability ([1]; first compound 0.01 µM) of 0.381, a relative viability ([1]; first compound 0.03162 µM) of 0.331 and a relative viability ([1]; first compound 0.1 µM) of 0.324. For the same compound, the relative viability ([1]; first compound 0.3162 µM) was 0.319, the relative viability ([1]; first compound 1 µM) was 0.207 and the relative viability ([2]; first compound 0.01 µM) was 0.405. It also gave a relative viability ([2]; first compound 0.03162 µM) of 0.428, a relative viability ([2]; first compound 0.1 µM) of 0.44 and a relative viability ([2]; first compound 0.3162 µM) of 0.445. The relative viability ([2]; first compound 1 µM) was 0.391, the relative viability ([3]; first compound 0.01 µM) was 0.753 and the relative viability ([3]; first compound 0.03162 µM) was 0.768. For the same compound, the relative viability ([3]; first compound 0.1 µM) was 0.848, the relative viability ([3]; first compound 0.3162 µM) was 0.679 and the relative viability ([3]; first compound 1 µM) was 0.393. For the same compound, the relative viability ([4]; first compound 0.01 µM) was 0.438, the relative viability ([4]; first compound 0.03162 µM) was 0.39 and the relative viability ([4]; first compound 0.1 µM) was 0.321. For the same compound, the relative viability ([4]; first compound 0.3162 µM) was 0.308, the relative viability ([4]; first compound 1 µM) was 0.196 and the relative viability ([5]; first compound 0.01 µM) was 0.309. The relative viability ([5]; first compound 0.03162 µM) was 0.377, the relative viability ([5]; first compound 0.1 µM) was 0.291 and the relative viability ([5]; first compound 0.3162 µM) was 0.316. It also gave a relative viability ([5]; first compound 1 µM) of 0.247, a relative viability ([6]; first compound 0.01 µM) of 0.755 and a relative viability ([6]; first compound 0.03162 µM) of 0.566. The relative viability ([6]; first compound 0.1 µM) was 0.556, the relative viability ([6]; first compound 0.3162 µM) was 0.457 and the relative viability ([6]; first compound 1 µM) was 0.226. For the same compound, the relative viability ([7]; first compound 0.01 µM) was 0.743, the relative viability ([7]; first compound 0.03162 µM) was 0.86 and the relative viability ([7]; first compound 0.1 µM) was 0.818. It also gave a relative viability ([7]; first compound 0.3162 µM) of 0.68, a relative viability ([7]; first compound 1 µM) of 0.288 and a relative viability ([8]; first compound 0.01 µM) of 0.598. It also gave a relative viability ([8]; first compound 0.03162 µM) of 0.721, a relative viability ([8]; first compound 0.1 µM) of 0.623 and a relative viability ([8]; first compound 0.3162 µM) of 0.788. It also gave a relative viability ([8]; first compound 1 µM) of 0.292, a relative viability ([9]; first compound 0.01 µM) of 0.491 and a relative viability ([9]; first compound 0.03162 µM) of 0.482. It also gave a relative viability ([9]; first compound 0.1 µM) of 0.552, a relative viability ([9]; first compound 0.3162 µM) of 0.518 and a relative viability ([9]; first compound 1 µM) of 0.612. It also gave a relative viability ([10]; first compound 0.01 µM) of 0.544, a relative viability ([10]; first compound 0.03162 µM) of 0.45 and a relative viability ([10]; first compound 0.1 µM) of 0.471. For the same compound, the relative viability ([10]; first compound 0.3162 µM) was 0.53, the relative viability ([10]; first compound 1 µM) was 0.25 and the relative viability ([11]; first compound 0.01 µM) was 0.407. It also gave a relative viability ([11]; first compound 0.03162 µM) of 0.507, a relative viability ([11]; first compound 0.1 µM) of 0.486 and a relative viability ([11]; first compound 0.3162 µM) of 0.516. For the same compound, the relative viability ([11]; first compound 1 µM) was 0.361, the relative viability ([12]; first compound 0.01 µM) was 0.906 and the relative viability ([12]; first compound 0.03162 µM) was 0.854. The relative viability ([12]; first compound 0.1 µM) was 0.855, the relative viability ([12]; first compound 0.3162 µM) was 1 and the relative viability ([12]; first compound 1 µM) was 0.839. For the same compound, the relative viability ([13]; first compound 0.01 µM) was 0.346, the relative viability ([13]; first compound 0.03162 µM) was 0.435 and the relative viability ([13]; first compound 0.1 µM) was 0.353. It also gave a relative viability ([13]; first compound 0.3162 µM) of 0.412, a relative viability ([13]; first compound 1 µM) of 0.32 and a relative viability ([14]; first compound 0.01 µM) of 0.241. For the same compound, the relative viability ([14]; first compound 0.03162 µM) was 0.228, the relative viability ([14]; first compound 0.1 µM) was 0.205 and the relative viability ([14]; first compound 0.3162 µM) was 0.213. The relative viability ([14]; first compound 1 µM) was 0.18, the relative viability ([15]; first compound 0.01 µM) was 0.228 and the relative viability ([15]; first compound 0.03162 µM) was 0.227. It also gave a relative viability ([15]; first compound 0.1 µM) of 0.176, a relative viability ([15]; first compound 0.3162 µM) of 0.11 and a relative viability ([15]; first compound 1 µM) of 0.091. The relative viability ([16]; first compound 0.01 µM) was 0.763, the relative viability ([16]; first compound 0.03162 µM) was 0.795 and the relative viability ([16]; first compound 0.1 µM) was 0.67. For the same compound, the relative viability ([16]; first compound 0.3162 µM) was 0.474, the relative viability ([16]; first compound 1 µM) was 0.309 and the relative viability ([17]; first compound 0.01 µM) was 0.713. It also gave a relative viability ([17]; first compound 0.03162 µM) of 0.792, a relative viability ([17]; first compound 0.1 µM) of 0.875 and a relative viability ([17]; first compound 0.3162 µM) of 0.789. For the same compound, the relative viability ([17]; first compound 1 µM) was 0.824, the relative viability ([18]; first compound 0.01 µM) was 0.569 and the relative viability ([18]; first compound 0.03162 µM) was 0.479. The relative viability ([18]; first compound 0.1 µM) was 0.554, the relative viability ([18]; first compound 0.3162 µM) was 0.54 and the relative viability ([18]; first compound 1 µM) was 0.451. It also gave a relative viability ([19]; first compound 0.01 µM) of 0.363, a relative viability ([19]; first compound 0.03162 µM) of 0.358 and a relative viability ([19]; first compound 0.1 µM) of 0.35. It also gave a relative viability ([19]; first compound 0.3162 µM) of 0.325, a relative viability ([19]; first compound 1 µM) of 0.267 and a relative viability ([20]; first compound 0.01 µM) of 0.72. It also gave a relative viability ([20]; first compound 0.03162 µM) of 0.84, a relative viability ([20]; first compound 0.1 µM) of 0.611 and a relative viability ([20]; first compound 0.3162 µM) of 0.462. It also gave a relative viability ([20]; first compound 1 µM) of 0.245, a relative viability ([21]; first compound 0.01 µM) of 0.931 and a relative viability ([21]; first compound 0.03162 µM) of 0.96. For the same compound, the relative viability ([21]; first compound 0.1 µM) was 1.02, the relative viability ([21]; first compound 0.3162 µM) was 0.918 and the relative viability ([21]; first compound 1 µM) was 0.924. For the same compound, the relative viability ([22]; first compound 0.01 µM) was 0.823, the relative viability ([22]; first compound 0.03162 µM) was 0.925 and the relative viability ([22]; first compound 0.1 µM) was 0.717. The relative viability ([22]; first compound 0.3162 µM) was 0.725 and the relative viability ([22]; first compound 1 µM) was 0.704.
